Laboratory results: patent US6255347A (priority 1997, dated 2001)
Several values for one entry are separate records, joined by “and”; a condition that tells them apart may be missing. Equal values may be shown once. Entries after “also recorded” stand apart in the source; their conditions may differ. Where a name gives a salt, the structure may show the parent alone. Read-outs that look alike come from different tables or passages of the source. *1 amine or outer side, *2 acyl side, *3 side chain or, on linkers, in order; H or OH if unused. Where a SMILES comes first, the peptide text is derived from it. Bridges are numbered along the chain shown (N, C = ends). Roman numbers before positions name the chains, in order. [ ]: non-standard residue; d: D form. Actinocin(9to1) = Cc1c2oc3c(C)ccc(C(=O)[*:1])c3nc-2c(C(=O)[*:2])c(N)c1=O; NMeV = CN[C@H](C(=O)O)C(C)C; Sar = CNCC(=O)O

Key:
[1] = test system: APPs secretion by NIH 3T3 cell lines; experiment: cells; details: Mus musculus, NIH3T3, 20 h, read-out: fold increase of APPs secretion
[2] = test system: APPs secretion by NIH 3T3 cell lines; details: 50 μM; for Density of APPs band: 20 h culture, n = 2, mean ± S.D.
[3] = cited from earlier work
[4] = cited from earlier work; remark: listed apart in the source
rat stomach and duodenum = experiment: Gastric ulcer index / gastroduodenal lesions in rat; format: in vivo
Procedure: Male Sprague-Dawley rats (12 month) were obtained from Harlan-Sprague-Dawley, Inc. (Indianapolis, Ind.) and housed under controlled conditions of temperature humidity and light/dark cycle. […] Rat blood, brain and 50 μl of cerebrospinal fluid were collected and stored at -70° C. for APPs and PKC analysis by Western blotting. Rat stomach and duodenum were collected for the quantitation of gastroduodenal lesions.
The rat stomach and first 12 cm of the duodenum were opened and carefully shed with saline to remove any residual debris and fixed in 10% buffered formaldehyde. Tissues were examined macroscopically (×10) for lesions and hemorrhages. The evaluation of lesions or hemorrhages was based on the ulcer index (UI) reported by Leyck et al. (1985) and expressed as the sum total of lesions per treatment. The scoring units used ranged from 0 to 5, where zero represents no macroscopically visible lesions; 1 represents one to three small ulcers less than 4 mm; 2 represents more than three small ulcers; 3 represents ulcer hemorrhages with several small ulcers; 4 represents large (>4 mm) ulcers; 5 indicates tissue perforation.

NIH 3T3 cells = experiment: Foci formation assay, inhibition of PMA induced neoplastic transformation of NIH 3T3 cells; format: cell-based; details: PMA 0.02 μg/ml, 2% FBS
Procedure: (§1) NIH 3T3 cells (American Type Culture Collection, Rockville, Md.) were cultured in DMEM supplemented with 10% FBS inoculated at 10^4 cells/35 […] dish. […] PMA and ibuprofen were dissolved in DMSO and stored in 5% DMSO stock solutions that were diluted a 1000-fold with culture media prior to use. […] The media containing freshly added PMA and ibuprofen were changed every 60 hours for both the foci formation assay and PKCα analysis by Western blot.
Subsequent to washing with a tris/ saline buffer, the cells were stained with a solution of 4% aqueous Giemsa stain in phosphate buffer (pH 7.0). Foci of transformed cells were then visible by eye due to their high local density and verified by under light microscopy.

cyclooxygenase = details: cited from earlier work
PKCα = PKCα translocation in NIH 3T3 cells (subcellular fractionation, Western blot); format: cell-based; details: 10 μg/ml
Procedure: as §1
The cells were washed twice with phosphate-buffered saline (PBS) at 37° C. and subsequently lysed and scraped in 1 ml ice-cold protein lysis buffer (20 mM Tris-HCl, pH7.4, 2 mM EGTA, 2 mM EDTA, […] leupeptin and […] aprotinin) at 4° C. […] Briefly, cells were homogenized 10× in 15 ml glass homogenizer with a tight-fitting pestle and centrifuged at 900×g for 10 min. The resulting supernatant was then centrifuged at 100,000×g for 60 min to produce a nucleus-free membrane fraction (pellet) and a cytosol fraction (supernatant) for Western blots. The 900×g nuclear pellet was suspended in the 2 ml lysis buffer containing 10% sucrose and 0.1% Triton X-100 and washed twice by centrifuging at 1000×g for 10 min, then resuspended in 1 ml of the same buffer without Triton X-100 for Western blots. The purity of the fractions was monitored by light microscopy. […] The samples were stored at -70° C. until analysis.
15 μl of human plasma, 15 μl of rat plasma, CSF or 50 μg of rat brain protein were denatured with 35 μl of sample buffer at 95° C. for 4 min. Denatured proteins were separated by 10% SDS-polyacrylamide gel electrophoresis with a 50 μg or 20 μg protein load for each sample for APPs or PKC, respectively, and electrophoretically transferred from gel to nitrocellulose membrane. […] The immunoreactive bands were developed using enhanced chemilumenescence (ECL. Amersham Life Sci., Little Chalfont, UK), following extensive washing with the blocking buffer. The PKC bands were verified in each case by competitively blocking the signal with the peptide corresponding to each of PKCs. The bands were quantitated by scanning densitometry. Quantitative comparisons were made between samples processed simultaneously on one blot.

PKC = target: T1, PKC (Rattus norvegicus, UniProt P05696); experiment: Protein kinase C activity assay (histone phosphorylation, partially purified rat brain PKC); format: biochemical; details: PMA stimulated, 2 min, 30° C.
T1 construct: Partially purified PKCα from rat brain; purchased Promega (Madison, Wis.); host or cells: rat brain (tissue enzyme, partially purified)
Procedure: The following were obtained from the Sigma Chemical Co. (St. […] Anti-PKCα antibody (affinity purified) and its C-terminal region peptide was obtained from Life Technologies (Gaithersburg, Md.). […] All other chemicals were of the highest available purity and were obtained from standard commercial sources. […] Following 2 min initial incubation at 30° C., kinase reactions were initiated by the addition of ^32 P-γ-ATP and enzyme and continued at 30° C. for 2 min. Control incubations contained all assay components except enzyme and ibuprofen. […] All samples were carried out in duplicate.

[5] = test system: human neoplastic diseases; details: cited from earlier work

For CC(C(=O)O)c1cccc(Oc2ccccc2)c1 (racemic) [RS-Fenoprofen], the fold induction at 50 µM [1] was 1.6 and the “Density of APPs band” value [2] was 6.36 ± 0.77.
For CC(C(=O)O)c1ccc(-c2ccccc2)c(F)c1 (racemic) [RS-Flubiprofen], the “Density of APPs band” value [2] was 3.07 ± 0.34.
In the case of Cc1c2oc3c(C)ccc(C(=O)N[C@@H]4C(=O)N[C@H](C(C)C)C(=O)N5CCC[C@H]5C(=O)N(C)CC(=O)N(C)[C@@H](C(C)C)C(=O)O[C@@H]4C)c3nc-2c(C(=O)N[C@@H]2C(=O)N[C@H](C(C)C)C(=O)N3CCC[C@H]3C(=O)N(C)CC(=O)N(C)[C@@H](C(C)C)C(=O)O[C@@H]2C)c(N)c1=O [Actinomycin D] (I: T[dV]P[Sar][NMeV] / II: T[dV]P[Sar][NMeV]; ester I:1-I:C, II:1-II:C; linker I:N-II:N via Actinocin(9to1)), the elimination half-life ([3]; in vivo) is given as “about 36 hr”, the excreted in urine ([3]; in vivo) is given as 10% and the “excreted intact into the bile (in words)” value ([3]; in vivo) is given as “Half of the dose”. For the same molecule, the “passage of blood-brain barrier” value ([3]; in vivo) was “does not pass the blood-brain barrier”.
In the case of O=NN(CCCl)C(=O)NCCCl [Carmustine, 1,3-bis (2-chloroethyl)-1-nitrosourea], the “solubility (in words)” value ([4]; solvent) is given as “highly soluble in alcohol and lipids, and poorly soluble in water”.
In the case of O=C(O)CCCc1ccc(N(CCCl)CCCl)cc1 [Chlorambucil, 4-[bis(2-chlorethyl)amino]benzenebutanoic acid], the terminal half-life ([3]; in vivo) is given as 1.5 h.
For N.N.[Cl][Pt][Cl] [Cisplatin], the “absorption (in words)” value ([3]; oral) is listed as “not absorbed orally”.
For COc1cccc2c1C(=O)c1c(O)c3c(c(O)c1C2=O)C[C@@](O)(C(C)=O)C[C@@H]3O[C@H]1C[C@H](N)[C@H](O)[C@H](C)O1 [Daunorubicin, 5,12-Naphthacenedione, (8S-cis)-8-acetyl-10-[(3-amino-2,3,6-trideoxy-α-L-lyxo-hexanopyranosyl)oxy]-7,8,9,10-tetrahydro-6,8, 11-trihydroxy-10-methoxy-, hydrochloride], the “absorption (in words)” value ([3]; in vivo, po) is listed as “Oral absorption is poor” and the “secreted into the bile” value ([3]; in vivo) is listed as ~40%.
In the case of COc1cccc2c1C(=O)c1c(O)c3c(c(O)c1C2=O)C[C@@](O)(C(=O)CO)C[C@@H]3O[C@H]1C[C@H](N)[C@H](O)[C@H](C)O1 [Doxorubicin, 5,12-Naphthacenedione, (8s-cis)-10-[(3-amino-2,3,6-trideoxy-a-L-lyxo-hexopyranosyl)oxy]-7,8,9,10-tetrahydro-6,8,11 trihydroxy-8-(hydroxyacetyl)-1-methoxy-hydrochloride], the “absorption (in words)” value ([3]; in vivo, po) is listed as “absorbed poorly”, the elimination half-life ([3]; in vivo) is listed as “about 30 hr” and the excreted in urine ([3]; in vivo) is listed as “a few percent”.
In the case of O=NN(CCCl)C(=O)NC1CCCCC1 [Lomustine, 1-(2-chloro-ethyl)-3-cyclohexyl-1 nitrosourea], the “tissue levels compared to plasma levels” value ([3]; 15 minutes after intravenous administration) is listed as “comparable to plasma levels”, the “radioactivity excreted as degradation products” value ([3]; oral 30 mg/m^2 to 100 mg/m^2, within 24 hours) is listed as “about half” and the ionization ([4]; physiological pH) is listed as “relatively unionized at a physiological pH”.
For CO[C@@]12[C@H](COC(N)=O)C3=C(C(=O)C(C)=C(N)C3=O)N1C[C@@H]1N[C@@H]12 [Mitomycin], the “time required to reduce the serum concentration by 50%” value ([3]; human, in vivo, iv) is listed as 17 min, the “clearance from serum (in words)” value ([3]; in vivo, iv) is listed as “rapidly cleared from the serum” and the excreted in urine ([3]; in vivo) is listed as “Approximately 10%”.
With CN1C(C(=O)Nc2ccccn2)=C(O)c2ccccc2S1(=O)=O [Proxicam] the “Density of APPs band” value [2] was 3.29 ± 0.77.
For C[C@@H](C(=O)O)c1cccc(Oc2ccccc2)c1 [R-Fenoprofen], the fold induction at 50 µM [1] was 1.3 and the “Density of APPs band” value [2] was 5.32 ± 1.29.
With C[C@@H](C(=O)O)c1ccc(-c2ccccc2)c(F)c1 [R-Flubiprofen] the “Density of APPs band” value [2] was 3.30 ± 0.81.
With C[C@@H](C(=O)O)c1cccc(C(=O)c2ccccc2)c1 [R-Ketoprofen] the “Density of APPs band” value [2] was 3.41 ± 0.39 and 2.74 ± 0.34.
With CC(C(=O)O)c1cccc(C(=O)c2ccccc2)c1 (stereo not drawn) [RS-Ketoprofen] the “Density of APPs band” value [2] was 3.67 ± 0.27 and 2.94 ± 0.98.
In the case of C[C@H](C(=O)O)c1cccc(Oc2ccccc2)c1 [S-Fenoprofen], the fold induction at 50 µM [1] is reported as 1.3 and the “Density of APPs band” value [2] is reported as 5.32 ± 1.53.
For C[C@H](C(=O)O)c1ccc(-c2ccccc2)c(F)c1 [S-Flubiprofen], the “Density of APPs band” value [2] was 2.37 ± 0.66.
With C[C@H](C(=O)O)c1cccc(C(=O)c2ccccc2)c1 [S-Ketoprofen] the “Density of APPs band” value [2] was 2.99 ± 0.57 and 3.76 ± 1.26.
For CC(C)Cc1ccc([C@H](C)C(=O)O)cc1 [S-ibuprofen], the “Bleeding site (B), column 1” value (rat stomach and duodenum; 10 mg/kg bid, 7 days, column 1) was 4, the “gastropathy (in words)” value (rat stomach and duodenum; rat, in vivo) was “induced serious gastric ulcers and hemorrhage” and the “inhibition of foci formation, enantiomers compared to racemate” value (NIH 3T3 cells) was “more pronounced than that of the racemate; also recorded: more effective than the racemic mixture”. For the same molecule, the “inhibition of PMA induced foci formation / neoplastic transformation” value (NIH 3T3 cells; 6 weeks, ibuprofen 10 or 100 μg/ml) was “dramatically decreased; also recorded: inhibit the neoplastic transformation; also recorded: substantially inhibited”, the “capability to inhibit cyclooxygenase (in words)” value (cyclooxygenase) was “inhibition of cyclooxygenase activity by ibuprofen resides almost exclusively in the S-enantiomer” and the “potency in suppressing prostaglandin formation, S- versus R-ibuprofen” value (cyclooxygenase; from arachidonic acid) was “approximately 100 times”. For the same molecule, the “inhibition of PKCα translocation from cytosol to nuclear compartments” value (PKCα; PMA 4 hours) was “clearly modulated the time dependent intracellular redistribution of PKCα”, the “inhibition of PKCα translocation, racemate versus enantiomers” value (PKCα; particularly 2 weeks of PMA) was “more effective than the racemic mixture” and the “concentration inhibiting PKC mediated histone phosphorylation” value (PKC) was 1 µM.
For CC[C@]1(O)C[C@@H]2CN(CCc3c([nH]c4ccccc34)[C@@](C(=O)OC)(c3cc4c(cc3OC)N(C)[C@H]3[C@@](O)(C(=O)OC)[C@H](OC(C)=O)[C@]5(CC)C=CCN6CC[C@]43[C@@H]65)C2)C1 [Vinblastine], the excreted in urine ([3]; in vivo) is given as “Approximately 15%”, the “recovered in the feces” value ([3]; in vivo) is given as “about 10%” and the “cases with significant improvement” value ([5]; lymphomas, particularly Hodgkin's disease) is given as 50 to 90%.
In the case of CC[C@]1(O)C[C@H]2CN(CCc3c([nH]c4ccccc34)[C@@](C(=O)OC)(c3cc4c(cc3OC)N(C=O)[C@H]3[C@@](O)(C(=O)OC)[C@H](OC(C)=O)[C@]5(CC)C=CCN6CC[C@]43[C@@H]65)C2)C1 [Vincristine], the “concentration in blood cells (in words)” value ([3]; in vivo) is given as “extensively concentrated in platelets and to a lesser extent in leukocytes and erythrocytes” and the “absorption (in words)” value ([3]; oral) is given as “Unpredictable absorption”.
For CS(=O)(=O)OCCCCOS(C)(=O)=O [busulfan, 1,4-butanediol dimethanesulfonate], the “patients obtaining hematologic remission” value ([5]; previously untreated chronic myelogenous leukemia, adults) is listed as “Approximately 90%”.
In the case of COc1cccc2c1C(=O)c1c(O)c3c(c(O)c1C2=O)C[C@@](O)(C(C)O)C[C@@H]3O[C@H]1C[C@H](N)[C@H](O)[C@H](C)O1 (stereo partly drawn) [daunorubicinol], the elimination half-life ([3]; in vivo) is listed as “about 27 hr”.
With CC(C(=O)O)c1cccc(Oc2ccccc2)c1 (stereo not drawn) [fenoprofen] the “APPs secretion (in words)” value ([2]; 20 h) was “increased APPs secretion”.
